Target: firefly luciferase (Fluc) (Photinus pyralis, UniProt P08659)
Assay: luminescence emission spectrum
Assay type: biochemical

Sequence of firefly luciferase (Fluc) (P08659 whole entry): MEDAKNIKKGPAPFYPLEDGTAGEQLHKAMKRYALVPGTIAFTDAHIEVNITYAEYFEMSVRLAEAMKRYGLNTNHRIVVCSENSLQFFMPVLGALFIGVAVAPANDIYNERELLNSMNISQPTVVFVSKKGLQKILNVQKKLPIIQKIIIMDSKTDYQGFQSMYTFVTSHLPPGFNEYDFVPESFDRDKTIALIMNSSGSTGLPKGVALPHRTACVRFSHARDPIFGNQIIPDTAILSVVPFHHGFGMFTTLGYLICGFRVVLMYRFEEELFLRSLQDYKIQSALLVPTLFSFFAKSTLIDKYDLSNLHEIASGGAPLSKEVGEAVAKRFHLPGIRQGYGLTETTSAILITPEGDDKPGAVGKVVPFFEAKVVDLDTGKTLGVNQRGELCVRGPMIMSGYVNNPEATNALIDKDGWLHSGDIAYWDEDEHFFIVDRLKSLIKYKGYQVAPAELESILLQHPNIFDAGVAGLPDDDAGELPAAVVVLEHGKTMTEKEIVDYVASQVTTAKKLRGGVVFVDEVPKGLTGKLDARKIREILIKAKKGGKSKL

luminescence emission spectrum: Fluc (D-luciferin)
SMILES: O=C(O)[C@H]1CSC(c2nc3ccc(O)cc3s2)=N1 [D-luciferin]
